Legend:
[1] = system: RKO colon adenocarcinoma cells (RKOp27 induced); test: Alamar Blue cell viability assay on RKOp27 cells arrested by Ponasterone A induced p27Kip1 expression (cell cycle specific mode of action); assay type: cell-based; settings: Homo sapiens, cells arrested by ectopic p27Kip1 induced with 10 μM Ponasterone A, 72 hours incubation, read-out: IC50 RKO p27 induced
Experimental: To determine the cell cycle specific mode of action, subclones of RKO colon adenocarcinoma cells (RKOp27 as described by Schmidt et al. in Oncogene 19, 2423-2429; 2000) are seeded into 96 well flat bottom plates at a density of 16000 cells per well in a volume of 50 μl per well in DMEM growth medium with 10% FCS containing 10 μM Ponasterone A. 24 hours after seeding the 50 μl each of the compound dilutions in DMEM medium are added into each well of the 96-well plate. Each compound dilution is tested as quadruplicates. Wells containing untreated control cells are filled with 50 μl DMEM medium containing 1% DMSO. The cells are then incubated with the substances for 72 hours at 37° C. in a humidified atmosphere containing 5% carbon dioxide. To determine the viability of the cells, 10 μl of an Alamar Blue solution (Biosource) are added and the fluorescence is measured at an extinction of 544 nm and an emission of 590 nm. For the calculation of the cell viability the emission value from untreated cells is set as 100% viability and the emission rates of treated cells are set in relation to the values of untreated cells. Viabilities are expressed as % values. Viability is compared of proliferating cells grown in the absence of the inducer Ponasterone A, versus viability of cells arrested by the expression of ectopic p27Kip1 induced by Ponasterone A.
Representative IC50 values for anti-proliferation/cytotoxicity determined in the aforementioned assays follow from the following table A, in which the numbers of the compound correspond to the numbers of the examples.

IC50 [1] | melting point | SMILES
> 100 µM | 199 to 202 °C | COc1cc(OC)cc([C@@H]2c3[nH]c4cc(F)ccc4c3C[C@H]3C(=O)N(C)C(=S)N23)c1 (racemic) [Compound 6, (3aSR,10RS)-10-(3,5-Dimethoxy-phenyl)-7-fluoro-2-methyl-1-thioxo-1,2,3a,4,9,10-hexahydro-2,9,10a-triaza-cyclopenta[b]fluoren-3-one]
> 85 µM | 247 to 249 °C | COc1cc(OC)cc([C@@H]2c3sc4ccccc4c3C[C@H]3C(=O)N(C)C(=S)N23)c1 (racemic) [Compound 2, (3aSR,10RS)-10-(3,5-Dimethoxy-phenyl)-2-methyl-1-thioxo-1,2,4,10-tetrahydro-3aH-9-thia-2,10a-diaza-cyclopenta[b]fluoren-3-one]
> 100 µM | 252 to 257 °C | Cc1cc(C)cc([C@@H]2c3[nH]c4ccccc4c3C[C@H]3C(=O)N(C)C(=S)N23)c1 [Compound 5, (3aS,10R)-10-(3,5-Dimethyl-phenyl)-2-methyl-1-thioxo-1,2,3a,4,9,10-hexahydro-2,9,10a-triaza-cyclopenta[b]fluoren-3-one]
> 100 µM |  | COc1cc(OC)cc([C@@H]2c3[nH]c4ccccc4c3C[C@H]3C(=O)N(C)C(=S)N23)c1 [Compound 1, (3aS,10R)-10-(3,5-Dimethoxy-phenyl)-2-methyl-1-thioxo-1,2,3a,4,9,10-hexahydro-2,9,10a-triaza-cyclopenta[b]fluoren-3-one]
> 100 µM | 308 to 310 °C | CN1C(=O)[C@@H]2Cc3c([nH]c4ccccc34)[C@@H](c3cc(F)cc(F)c3)N2C1=S [Compound 4, (3aS,10R)-10-(3,5-Difluoro-phenyl)-2-methyl-1-thioxo-1,2,3a,4,9,10-hexahydro-2,9,10a-triaza-cyclopenta[b]fluoren-3-one]
> 100 µM | 216 to 218 °C | COc1cc(OC)cc([C@@H]2c3[nH]c4cc(C)ccc4c3C[C@H]3C(=O)N(C)C(=S)N23)c1 (racemic) [Compound 8, (3aSR,10RS)-10-(3,5-Dimethoxy-phenyl)-2,7-dimethyl-1-thioxo-1,2,3a,4,9,10-hexahydro-2,9,10a-triaza-cyclopenta[b]fluoren-3-one]
> 100 µM | 279 to 291 °C | COc1cc(OC)cc([C@@H]2c3[nH]c4cccc(C)c4c3C[C@H]3C(=O)N(C)C(=S)N23)c1 (racemic) [Compound 7, (3aSR,10RS)-10-(3,5-Dimethoxy-phenyl)-2,5-dimethyl-1-thioxo-1,2,3a,4,9,10-hexahydro-2,9,10a-triaza-cyclopenta[b]fluoren-3-one]
> 100 µM | 277 °C | CN1C(=O)[C@@H]2Cc3c([nH]c4ccccc34)[C@@H](c3cc(Cl)cc(Cl)c3)N2C1=S [Compound 3, (3aS,10R)-10-(3,5-Dichloro-phenyl)-2-methyl-1-thioxo-1,2,3a,4,9,10-hexahydro-2,9,10a-triaza-cyclopenta[b]fluoren-3-one]
